Test results from PMC10953011, “Oxygen‐insensitive nitroreductase E. coli NfsA, but not NfsB, is inhibited by fumarate” (Proteins, 2022).

Experiments:
NfsA [1] = target: T1, NfsA (Escherichia coli, UniProt P17117); test: X-ray crystal structure ([…] Å); steady-state inhibition kinetics with nitrofurazone and NADPH; type: biochemical; design: untagged full-length, 240 residues, dimer
T1 sequence (P17117 1-240): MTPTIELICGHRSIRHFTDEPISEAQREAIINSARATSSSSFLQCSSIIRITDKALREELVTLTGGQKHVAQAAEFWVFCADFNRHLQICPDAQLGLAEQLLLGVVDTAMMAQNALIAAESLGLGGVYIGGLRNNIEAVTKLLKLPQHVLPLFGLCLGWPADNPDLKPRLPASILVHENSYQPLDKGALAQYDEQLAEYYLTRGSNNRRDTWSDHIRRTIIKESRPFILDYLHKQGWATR

NfsA [2] = target: T1, NfsA; test: steady-state inhibition kinetics with nitrofurazone and NADPH, […] nm; type: biochemical; design: untagged full-length

| SMILES | Ki (NfsA [1]) [µM] | Ki (NfsA [2]) [µM] |
| --- | --- | --- |
| O=C(O)/C=C/C(=O)O [fumarate] | 145 ± 28 |  |
| O=C(O)CCC(=O)O [succinate] |  | 4300 ± 600 |
